The nature of data set [1]: Release of fluorescent dye from alginate paste on porcine tongue under shear flow. Format: physicochemical. As to conditions: after two hours, 0.01M PBS pH 6.8, 37° C. The text has this: A home-made apparatus was designed, based on a flow cell for assessing the mucoadhesion of pastes and viscous polymer solutions under shear flow conditions. The experiment was set up by mixing viscous solution of alginate with the fluorescent dye solution, by that, the fluorescent dye was non-covalently attached to alginate. The pastes were spread on a slice of porcine tongue simulating the target tissue. The tissue holding the paste was placed in a vial and was subject to shear flow while immersed in PBS solution (see FIG. 1A).

Data set [2] can be described thus: Liposome release from alginate pastes spread on tongue tissue. The format is physicochemical. The note with it: 3% Ca+2-Ba+2 cross-linked alginate paste, simulated saliva buffer pH 6.8, 37° C. The protocol:
Alginate-fluorescein containing liposomes pastes were prepared by dissolving 30, 40 or 50 mg alginate-fluorescein in 0.4 mL DDW and 0.6 mL of fluorescently labeled liposome solution. The mixtures were stirred until homogenous viscous solutions were achieved. Alginate-fluorescein paste (50 μL) was spread on porcine's tongue tissue (1 cm×1 cm) which was glued with cyanoacrylate glue to a weight and placed in a vail with […] saliva buffer, pH 6.8. One sample (paste on a tissue) was inserted into dialysis bag and the absorbance of this sample was used as a blank. The vail was immersed in a shaking water/ethylene-glycole bath at 37° C. and 25 rpm. An aliquot (200 μL) of eluted liposome medium was removed for quantification; this volume was replaced with fresh buffer. The release of alginate-fluorescein and liposome was quantified by measuring the fluorescence (alginate-fluorescein: λex420 nm, λem530 nm, labeled liposome: λex530 nm, […]) of the release media at different time points.
pastes were prepared by dissolving 40 mg alginate or alginate-SH, or 300 mg alginate-PEGAc.
Alginate paste (50 μL) was spread on a piece of tissue which was glued with cyanoacrylte glue to a weight and placed in a vail with 10 ml 0.01M PBS, pH=6.8. […] An aliquot (200 μL) of eluted liposome medium was removed for quantification; this volume was replaced with fresh buffer. […]

The subject of data set [3] is CAL-27 cells. The data set is described as follows: CellTiter-Glo viability, alginate pastes on permeable tissue culture inserts. The note with it: alginate paste hybrid system. The format is cell-based, human. The protocol:
In order to examine the effectivity of the proposed hybrid system, alginate pastes with empty liposomes, free drug and drugs loaded liposomes were tested for their effect on CAL-27 cells using permeable tissue culture inserts. Cell viability was determined using the Cell Titer-Glo® assay (see Table 6 below showing the relative cell viability obtained after 24 and 48 hr of treatment with hybrid system and FIG. 25).
(In general: In ATP-based viability assays light output follows the ATP content of the culture.)

Data set [4] relates to CAL-27 cells. The data set is described as follows: MTT cell viability assay. The format is cell-based, human. The note with it: 24 and 48 hr. As to the method: The cytotoxicity of chemotherapeutic drugs to CAL-27 cells was determined using the MTT assay. Cells were plated in 96-well plate in density of 50,000 cells per well in a total volume of 200 μl medium. After 24 hours the cells were treated with different drugs and liposomes for 24 h and 48 h. All experiments were done in quadruplicates.
Cell viability was evaluated by MTT assay, a colorimetric assay based on the ability of viable cells to reduce a soluble yellow MTT substrate to a blue formazan crystal by mitochondrial succinate dehydrogenase activity of viable cells. This test is a good index of mitochondrial activity and thus of cell viability. After 24 or 48 hr of treatment, the medium was aspirated, and 100 μL of MTT, 1 mg/mL in PBS were added to each well. After MTT addition the plates were covered and returned to the incubator at 37° C. for 2 hr, the optimal time for formazan product formation. […] The absorbance was measured at 570 nm and the background absorbance measured at 690 nm.
In exemplary procedures, alginate gels incorporating either empty or doxorubicin loaded liposomes were prepared as described above, in a volume of 100 μL each with liposome proportion of 6.7%, 16.7% and 33.3% (v/v). […] Viability was measured using the MTT assay. […]

Take `CCN(CC)c1ccc2c(-c3ccc(S(=O)(=O)O)cc3S(=O)(=O)[O-])c3ccc(=[N+](CC)CC)cc-3oc2c1` [fluorescent marker, sulforhodamine B]: the “Release of fluorescent marker to external PBS solution” value in data set [1] is “completely released”. For the molecule `COc1cccc2c1C(=O)c1c(O)c3c(c(O)c1C2=O)C[C@@](O)(C(=O)CO)C[C@@H]3O[C@H]1C[C@H](N)[C@H](O)[C@H](C)O1` [Free Doxorubicin, doxorubicin], the “Release of doxorubicin from cross-linked pastes” value in data set [2] was “similar, and sustained”. The “Relative cell viability 24 h” value in data set [3] (24 h) is 0.04 ± 0.008. For the same molecule, the “Relative cell viability 48 h” value in data set [3] (48 h) came to 0.00 ± 0.000.

For the molecule `O=c1[nH]cc(F)c(=O)[nH]1` [5-FU free drug, 5-fluorouracil], the “Toxicity to cancer cells, drug loaded liposomes versus free drug” value in data set [4] is “slower in action and therefore seemed less efficient within the 48 hr experiment”.
